Bounds are passed on as bounds.

The text below walks through data of patent publication US12037324B2, “Biarylmethyl heterocycles” (Université de Montréal, priority 2016, dated 2024).

Common to all, as to assay type: cell-based
The target in assay [1] is T1, AGTR1 (Homo sapiens, UniProt P30556).
T1 construct: host or cells: Pathunter CHO-K1 AGTR1 β-arrestin cell line (CHO-K1)
T1 sequence (P30556 1-359): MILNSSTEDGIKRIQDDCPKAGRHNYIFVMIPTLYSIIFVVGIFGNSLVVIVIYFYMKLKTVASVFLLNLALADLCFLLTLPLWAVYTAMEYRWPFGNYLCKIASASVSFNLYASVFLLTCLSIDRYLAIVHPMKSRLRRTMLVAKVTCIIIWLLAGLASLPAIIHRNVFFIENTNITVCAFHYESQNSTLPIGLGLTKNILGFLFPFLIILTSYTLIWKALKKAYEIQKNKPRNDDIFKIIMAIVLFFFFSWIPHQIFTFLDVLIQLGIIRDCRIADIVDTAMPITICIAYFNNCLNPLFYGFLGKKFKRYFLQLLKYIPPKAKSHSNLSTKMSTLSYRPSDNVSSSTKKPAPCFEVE
Briefly: DiscoveRx β-arrestin2 recruitment assay (enzyme complementation, Pathunter CHO-K1 AGTR1 β-arrestin cell line). Conditions: DiscoveRx β-arrestin2 recruitment; for DiscoveRx β-arrestin2 Ymax (%): maximal response. The protocol: In one aspect of the invention, signaling bias of compounds was assessed by comparing the relative activity of compounds to activate both the β-arrestin and Gq signaling pathways. In order to confirm signaling bias, compounds were studied in two different assay formats. DiscoveRx β-arrestin2 Recruitment and IP1 Assays β-arrestin2 recruitment to activated receptors can be assessed using an enzyme complementation method (Zhao, Jones et al. 2008). […] Cells (5000/well) were plated into 1536 well plates (Cellocoat plates, Greiner Bio One, Monroe, NC) 14-16 hours before each experiment in 20 μl DMEM/F12 medium (Thermo-Fisher Scientific, Carlsbad, CA) containing heat-inactivated 1% fetal bovine serum. Subsequently, the compounds of interest were added at varying concentrations to the wells in a volume of 200 nl and the cells incubated for 90 min at 37° C. The detection reagent (10 μl) was added to each well and the plates incubated at room temperature for 1 hour before measurement of chemiluminescence using an EnVision Multilabel Reader (Perkin-Elmer, Waltham, MA). The data are processed using Toolset for Runmaster QCMulti. Concentration-response curves are fitted and EC50s (agonist mode) and IC50s (antagonist mode) estimated using a 4-parameter logistic equation. Compound activities are reported as a relative percentage to the maximal effect of All in the assays.
A general note: Arrestin recruitment assays detect the binding of arrestin to an activated receptor.

Assay [2] deals with T1, AGTR1. Briefly: DiscoveRx IP1 accumulation assay (HTRF), agonist mode, Pathunter CHO-K1 AGTR1 β-arrestin cell line. The conditions noted are these: for EC50: read-out: IP-1 EC50. As for the experimental part:
In one aspect of the invention, signaling bias of compounds was assessed by comparing the relative activity of compounds to activate both the β-arrestin and Gq signaling pathways. In order to confirm signaling bias, compounds were studied in two different assay formats.
DiscoveRx β-arrestin2 Recruitment and IP1 Assays
Gq activation can be assessed by measuring the accumulation of inositol phosphates (e.g. IP3, IP1) that are liberated following activation of phospholipase C by Gq (Thomsen, Frazer et al. 2005). In the current invention we have utilized the DiscoveRx Pathunter CHO-K1 AGTR1 β-arrestin cell line to also measure IP1 accumulation in response to compounds. IP1 accumulation was measured in both agonist and antagonist modes. In agonist mode, cells are plated as above 14-16 hours before the experiment. The medium is then removed and compounds at varying concentrations added in a final volume of 20 μl. The cells are incubated at 37° C. for 90 min. IP1 accumulation detected using a commercial HTRF assay according to manufacturer's instructions (Cisbio, Bedford, MA). Specifically, 4 μl of D2-conjugate solution (diluted 1:20 in Cisbio HTRF assay buffer) is added to each well, followed by the addition of 4 μl of anti-IP1 cryptate diluted 1:20 in HTRF assay buffer and the plates incubated for 20 min at room temperature. 14 μl from each well is measured using an Envision multi-label reader and data processed using Toolset for Runmaster QCMulti. Concentration-response curves are fitted and EC50s (agonist mode) and IC50s (antagonist mode) estimated using a 4-parameter logistic equation. Compound activities are reported as a relative percentage to the maximal effect of All in the assays.

The target of the next assay is T2, hAT1R (Homo sapiens, UniProt P30556).
T2 sequence (P30556 1-359): T1 sequence (P30556 1-359)
Briefly: BRET β-arrestin2 biosensor assay, higher receptor expression (hAT1R 5 ng/well), HEK293 cells. Conditions: for EC50: High AT1R Expression. A general note: In BRET a luciferase serves as donor, and the signal depends on an acceptor being close.

With `CCc1nc2c(C)cc(C)nc2n1Cc1ccc(-c2cc(Nc3ccc(F)cc3)ccc2-c2nn[nH]n2)cc1` [Example 26, 4′-((2-ethyl-5,7-dimethyl-3H-imidazo[4,5-b]pyridin-3-yl)methyl)-N-(4-fluorophenyl)-6-(2H-tetrazol-5-yl)-[1,1′-biphenyl]-3-amine], at AGTR1 [1], the EC50 (as a rule, the midpoint of the concentration-response curve) came to 10.8 nM and the “DiscoveRx β-arrestin2 Ymax (%)” value turned out to be 25.0%. Further, on AGTR1 [2], the “IP-1 Ymax (%)” value was found to be 7.5% and the EC50 was determined as 24.2 nM.
The corresponding values for `CCCCC1=NC2(CCCC2)C(=O)N1Cc1ccc(-c2cc(-c3ccccn3)ccc2-c2nn[nH]n2)cc1` [Example 140] are 9.7 nM, 22.1%, 4.5% and 26.1 nM.
In the case of `CCCC1=NC2(CCOC2)C(=O)N1Cc1ccc(-c2cc(-c3ccccc3)ccc2-c2nn[nH]n2)cc1` (single isomer, unassigned) [Example 158, 3-((6′-(2H-tetrazol-5-yl)-[1,1′:3′,1″-terphenyl]-4-yl)methyl)-2-propyl-7-oxa-1,3-diazaspiro[4.4]non-1-en-4-one], at AGTR1 [1], the EC50 amounted to 191 nM and the “DiscoveRx β-arrestin2 Ymax (%)” value amounted to 41.6%. Further, on AGTR1 [2], the “IP-1 Ymax (%)” value is on record as 8.6% and the EC50 is 214 nM.
The corresponding values for `CCc1nc2c(C)cc(C)nc2n1Cc1ccc(-c2cc(C3CCCO3)ccc2-c2nn[nH]n2)cc1` (single isomer, unassigned) [Example 73, 2-ethyl-5,7-dimethyl-3-((5′-(tetrahydrofuran-2-yl)-2′-(2H-tetrazol-5-yl)-[1,1′-biphenyl]-4-yl)methyl)-3H-imidazo[4,5-b]pyridine] are 108 nM, 26.4%, 11.6% and 5940 nM.
For the compound `CCCCc1nc(Cl)c(C(=O)O)n1Cc1ccc(-c2cc(N3CCc4ccccc43)ccc2-c2noc(=O)[nH]2)cc1` [Example 406, 2-butyl-4-chloro-1-((5′-(indolin-1-yl)-2′-(5-oxo-4,5-dihydro-1,2,4-oxadiazol-3-yl)-[1,1′-biphenyl]-4-yl)methyl)-1H-imidazole-5-carboxylic acid], on AGTR1 [1], the response was half-maximal at 9 nM (EC50) and the “DiscoveRx β-arrestin2 Ymax (%)” value is reported as 33.9%. On hAT1R, the “BRET β-Arrestin2 High AT1R Expression Ymax (%)” value turned out to be 97.5% and the 50% effective concentration (EC50) turned out to be 10.6 nM.
Turning to `CCc1nc2c(C)cc(C)nc2n1Cc1ccc(-c2cc(-c3ccc4c(ccn4C)c3)ccc2-c2nn[nH]n2)cc1` [Example 17], on AGTR1 [1], the midpoint of the response, the EC50, lay at 15.7 nM and the “DiscoveRx β-arrestin2 Ymax (%)” value is 11.9%. Further, at AGTR1 [2], the “IP-1 Ymax (%)” value turned out to be 3.3% and the EC50 was 8.7 nM.
For the compound `CCCCC1=NC2(CCCC2)C(=O)N1Cc1ccc(-c2cc(N3CCC(C)C3)ccc2-c2nn[nH]n2)cc1` (centres unmarked) [Example 103], at AGTR1 [1], a half-maximal effect (EC50) was put at 112 nM and the “DiscoveRx β-arrestin2 Ymax (%)” value is 8.8%. The EC50 on AGTR1 [2] was > 100000 nM.
With `CCCCC1=NC2(CCCC2)C(=O)N1Cc1ccc(-c2cc(N3CC4(CC4)c4ccccc43)ccc2-c2nn[nH]n2)cc1` [Example 108], at AGTR1 [1], the EC50 stood at 42.3 nM and the “DiscoveRx β-arrestin2 Ymax (%)” value was 38.8%. On AGTR1 [2], the “IP-1 Ymax (%)” value is on record as 12.8% and the 50% effective concentration (EC50) turned out to be 219 nM.
Take `CCc1nc2c(C)cc(C)nc2n1Cc1ccc(-c2cc(N3CCC[C@H](C)C3)ccc2-c2nn[nH]n2)cc1` [Example 88]: at AGTR1 [1], the response was half-maximal at 8.1 nM (EC50) and the “DiscoveRx β-arrestin2 Ymax (%)” value is given as 22.1%. In addition, the EC50 on AGTR1 [2] is > 100000 nM.
Take `CCc1nc2c(C)cc(C)nc2n1Cc1ccc(-c2cc(N3CCC[C@@H](C)C3)ccc2-c2nn[nH]n2)cc1` [Example 86]: on AGTR1 [1], it took 159 nM to reach a half-maximal effect (EC50) and the “DiscoveRx β-arrestin2 Ymax (%)” value is recorded as 38.0%. Further, the EC50 at AGTR1 [2] was > 100000 nM.
Regarding `CCCCC1=NC2(CCCC2)C(=O)N1Cc1ccc(-c2cc(-c3cncc(OC)c3)ccc2-c2nn[nH]n2)cc1` [Example 132], on AGTR1 [1], the 50% effective concentration (EC50) came to 87.2 nM and the “DiscoveRx β-arrestin2 Ymax (%)” value worked out at 14.1%. At hAT1R, the “BRET β-Arrestin2 High AT1R Expression Ymax (%)” value is given as 22.0% and the EC50 was 496 nM.
